Results: US20040048791A1, “Method for treating neoplastic cells using cycloprodigiosin or salt thereof” (priority 2002, published 2004)
Entries after “also recorded” stand apart in the source; their conditions may differ. Structures can show the parent of a compound that is named as a salt.

Experiments:
NF-κB = NF-κB luciferase gene reporter assay (pIG3Luc) in HeLa cells; format: cell-based
Text: The plasmids, pRKF-IKKα and pRKHA-IKKβ have been described previously (Oka, S., Kamata, H., Kamata, K., Yagisawa, H. and Hirata, H. (2000) FEBS Lett., 472, 196-202). pRKF-IKKαEE and pRK-HA-IKKβEE encode constitutively active mutants of IKKα, in which 176 and 180 serine residues in an activation loop are replaced by glutamic acid residues, and IKKβ, in, which 177 and 181 serine residues are replaced by glutamic acid residues, respectively. A reporter plasmid pIG3Luc for NF-κB encodes triple NF-κB binding site sequences (AGCTTCAGAGGGGACTRANSCRIPTIONCCGAGAGG) (SEQ ID NO: 2) followed by the luciferase gene. A control plasmid, pBKRLuc, was obtained from Toyobo (Toyo B-Net Co., Japan). pcDNAF-MEKK1, pRKF-p65, pEFBOSHA-Rac1-DA, and pEFBOSHA-Cdc42-DA, are the expression plasmids for MEKK1, the NF-κB subunit p65, constitutively active Rac1 and Cdc42, respectively.
Luciferase gene reporter assay and Kinase assays of IKK: HeLa cells were transfected with the reporter plasmids described above using Lipofectin (GIBCO BRL). After 24-48 hr, the luciferase activity was determined using the Luciferase Assay System (Promega). The kinase activity of IKKα and IKKβ were analyzed by immune complex kinase assay as described previously (Oka, S., Kamata, H., Kamata, K., Yagisawa, H. and Hirata, H. (2000) FEBS Lett. 472, 196-202). The substrates was using GST-IκBα(1-55) or GST-p65(399-551).
The gene expression induction by NF-κB activation plays the most important role among “life” signals by TNFα. Therefore, the NF-κB reporter gene was introduced into the cells to analyze the effect of cPrG-HCl by luciferase assay.
NF-κB is translocated into the nucleus also by activation with low-molecular-weight G proteins Rac1 and Cdc42 or MEKK1 and induces gene expression. An activated Rac1, Cdc42 or MEKK1 expression plasmid was introduced together with the NF-κB reporter gene into cells and the effect of cPrG-HCl on NF-κB activation was measured by luciferase assay (FIG. 4A and FIG. 4B).

IκB kinase (IKK) = target: T1, IκB kinase (IKK) (Homo sapiens, UniProt O14920+O15111); assay: IκB kinase activity in vitro; format: biochemical; details: FIG. 14, hydrochloride
T1 sequence (O15111 1-745): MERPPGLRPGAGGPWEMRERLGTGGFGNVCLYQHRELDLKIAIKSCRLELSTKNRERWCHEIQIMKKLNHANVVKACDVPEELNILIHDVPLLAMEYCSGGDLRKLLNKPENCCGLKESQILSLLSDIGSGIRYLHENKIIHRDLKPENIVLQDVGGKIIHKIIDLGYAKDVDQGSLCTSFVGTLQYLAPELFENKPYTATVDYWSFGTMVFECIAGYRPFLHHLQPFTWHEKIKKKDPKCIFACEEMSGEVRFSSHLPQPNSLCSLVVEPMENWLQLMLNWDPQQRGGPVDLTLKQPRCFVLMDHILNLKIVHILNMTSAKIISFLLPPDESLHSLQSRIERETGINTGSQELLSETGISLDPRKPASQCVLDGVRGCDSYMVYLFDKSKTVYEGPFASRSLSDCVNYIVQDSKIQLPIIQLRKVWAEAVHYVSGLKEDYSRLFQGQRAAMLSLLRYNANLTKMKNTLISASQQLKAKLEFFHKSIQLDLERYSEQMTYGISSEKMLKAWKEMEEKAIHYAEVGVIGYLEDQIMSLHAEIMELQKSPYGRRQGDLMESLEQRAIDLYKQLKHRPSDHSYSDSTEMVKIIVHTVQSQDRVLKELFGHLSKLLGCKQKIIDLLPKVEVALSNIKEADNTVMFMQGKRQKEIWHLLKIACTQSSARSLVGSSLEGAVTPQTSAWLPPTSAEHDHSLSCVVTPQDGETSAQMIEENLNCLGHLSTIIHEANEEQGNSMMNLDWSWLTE
T1 sequence (O14920 1-756): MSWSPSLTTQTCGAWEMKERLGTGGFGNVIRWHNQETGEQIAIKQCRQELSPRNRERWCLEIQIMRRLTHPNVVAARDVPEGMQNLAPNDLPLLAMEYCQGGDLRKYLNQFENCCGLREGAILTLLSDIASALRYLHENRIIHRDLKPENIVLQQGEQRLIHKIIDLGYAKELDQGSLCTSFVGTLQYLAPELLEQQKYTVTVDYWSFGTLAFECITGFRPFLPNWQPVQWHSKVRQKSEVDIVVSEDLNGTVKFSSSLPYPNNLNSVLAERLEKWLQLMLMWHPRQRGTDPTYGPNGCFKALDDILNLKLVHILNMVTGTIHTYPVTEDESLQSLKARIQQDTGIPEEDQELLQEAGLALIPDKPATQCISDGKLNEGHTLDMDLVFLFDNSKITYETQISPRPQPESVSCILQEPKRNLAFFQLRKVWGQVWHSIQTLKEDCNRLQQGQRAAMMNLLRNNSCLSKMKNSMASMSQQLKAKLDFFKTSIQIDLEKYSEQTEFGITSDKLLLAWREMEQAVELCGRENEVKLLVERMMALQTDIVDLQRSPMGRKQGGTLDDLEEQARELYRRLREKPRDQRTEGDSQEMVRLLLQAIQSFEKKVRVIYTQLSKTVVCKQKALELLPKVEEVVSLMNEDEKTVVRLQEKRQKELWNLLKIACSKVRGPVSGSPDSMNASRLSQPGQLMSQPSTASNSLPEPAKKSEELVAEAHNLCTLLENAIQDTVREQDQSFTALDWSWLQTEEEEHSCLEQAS
Text: Accordingly, in order to identify the p65 kinase which cPrG-HCl suppressed, the effect of cPrG-HCl on PKA (FIG. 13), casein kinase II (CKII) (FIG. 12), and IκB kinase (IKK) (FIG. 14) was studied in vitro.

## COC1=CC(c2ccc[nH]2)=N/C1=C\c1[nH]c(C)c2c1C(C)CCC2 (stereo not shown) [cPrG-HCl, Cycloprodigiosin hydrochloride]
NF-κB
  NF-κB-dependent gene expression induced by IKKα: Suppresses
  NF-κB-dependent gene expression induced by IKKβ: Suppresses
  NF-κB-dependent gene expression induced by p65: Suppresses
NF-κB; FIG. 3A
  PMA-induced activation of NF-κB: Suppresses
NF-κB; HeLa cells, FIG. 2A, 2C, hydrochloride
  TNFα-induced NF-κB activation (gene expression induction, luciferase): inhibited; also recorded: concentration-dependently suppressed
NF-κB; MEKK1 expression plasmid with reporter gene, FIG. 4
  NF-κB activation induced by MEKK1: suppressed
NF-κB; activated Cdc42 expression plasmid with reporter gene, FIG. 4
  NF-κB activation induced by Cdc42: suppressed
NF-κB; activated Rac1 expression plasmid with reporter gene, FIG. 4
  NF-κB activation induced by Rac1: suppressed
NF-κB; in the presence of imidazole, FIG. 2C
  TNFα-induced NF-κB activation: suppressed
IκB kinase (IKK)
  effect on IκB kinase (IKK) activity: does not directly suppress; also recorded: no suppressive effect
